A short description of data set [1]: Pattern of oxidative metabolites in human LMs by HR-MS. The class given is in vitro ADME. Conditions: human LMs incubated with AME. The procedure: (§1) The kinetics of the phase I metabolism of AOH and AME was investigated by incubating human, rat (both 1 mg protein/mL), and porcine LMs (2 mg protein/mL) with 1, 10, 20, 50, and 100 μM AOH or 1, 10, 20, and 50 μM AME based on the protocol by Al-Subeihi et al.[34] The incubation solution contained a final concentration of 3 mM NADPH and 1 mM ascorbic acid in 200 mM Tris–HCl (pH 7.4). After preincubation (37 °C, 1 min, mixing at 250–300 rpm), the toxin stock was added in a 1:100 dilution, resulting in a total DMSO content of 1% and the desired toxin concentration. DMSO was selected for this assay because it is the least inhibitory of the solvents studied by Busby et al. on CYP1A1,[35] the primary enzyme involved in the hydroxylation of AOH and AME.[26] The well-established solubility of the test compounds in DMSO and DMSO-containing aqueous buffers facilitated laboratory work and ensured consistency with existing literature, thereby improving the comparability of results across studies, including those of Pfeiffer and colleagues.[25] In a preliminary investigation, incubation times of 5 and 10 min were chosen because they fall within the linear range of the transformation rate–time relationship, thereby ensuring initial rate conditions (Figure S1). When the selected incubation time (0–10 min) passed, one part of the sample was pipetted into two parts of ice-cold extraction solvent (acetonitrile–methanol, 1:1, v/v) for reaction termination. Subsequently, the samples were placed into the freezer (−20 °C) for at least an hour, centrifuged (15 min, 18,000g, 4 °C), and further diluted in methanol–water (3:7, v/v) prior to LC–MS measurements. In the solvent control, the toxin was substituted with DMSO in the incubation solution. Control incubations were performed without the cofactor NADPH or with heat-inactivated microsomes (98 °C, 10 min, mixing at 300 rpm).
Pooled high-resolution MS (HR-MS) samples were analyzed on a Vanquish UHPLC system (Thermo Fisher Scientific, Waltham, MA, USA) connected to a dual-pressure linear trap-quadrupole Orbitrap mass analyzer (Velos ETD, Thermo Fisher Scientific, Waltham, MA, USA). The heated ESI interface (source heater temperature: 400 °C) was operated in both positive and negative modes. The mobile and stationary phases were the same as those for the targeted analysis. The column compartment temperature was kept at 40 °C. A multistep gradient was applied at a flow rate of 0.4 mL/min and started with rinsing the column for 1 min at 10% eluent B. Then, the organic content was linearly raised to 100% until the 11th minute. Subsequently, the column was purged with 100% eluent B for two additional minutes. […]

The nature of data set [2]: Pattern of oxidative metabolites in porcine LMs by HR-MS. Conditions: for Relative peak area of oxidative metabolite: porcine LMs, normalized to the sum of measured peak areas. In kind it is in vitro ADME, pig. The procedure:
as §1
Pooled high-resolution MS (HR-MS) samples were analyzed on a Vanquish UHPLC system (Thermo Fisher Scientific, Waltham, MA, USA) connected to a dual-pressure linear trap-quadrupole Orbitrap mass analyzer (Velos ETD, Thermo Fisher Scientific, Waltham, MA, USA). The heated ESI interface (source heater temperature: 400 °C) was operated in both positive and negative modes. The mobile and stationary phases were the same as those for the targeted analysis. The column compartment temperature was kept at 40 °C. A multistep gradient was applied at a flow rate of 0.4 mL/min and started with rinsing the column for 1 min at 10% eluent B. Then, the organic content was linearly raised to 100% until the 11th minute. Subsequently, the column was purged with 100% eluent B for two additional minutes. Finally, the initial eluent composition was reset between minutes 13 and 13.5, followed by a 2 min re-equilibration under these conditions, resulting in a total run time of 15.5 min. Data acquisition and evaluation were performed with the software Skyline (v. 21.1.0.146, MacCoss Lab, Department of Genome Sciences, University of Washington, Seattle, WA, USA), XCalibur (v. 2.2SP1.48), and Chromeleon (v. 7.2.6.; both Thermo Fisher Scientific, Waltham, MA, USA).
As no analytical standards are currently available for the hydroxy (OH) metabolites of AOH and AME, an Alternaria reference mixture containing 4-OH-AOH and 4-OH-AME was used to enable associating peaks with their respective phase I metabolites.

For data set [3], the system named is esophageal cells. Set-up: method as in PMID 27422292. Conditions: cited from earlier work.
The nature of data set [4]: Pattern of oxidative metabolites in rat LMs by HR-MS. Conditions: rat LMs incubated with AME. The class given is in vitro ADME, Sprague–Dawley rat. The procedure:
The kinetics of the phase I metabolism of AOH and AME was investigated by incubating human, rat (both 1 mg protein/mL), and porcine LMs (2 mg protein/mL) with 1, 10, 20, 50, and 100 μM AOH or 1, 10, 20, and 50 μM AME based on the protocol by Al-Subeihi et al.[34] The incubation solution contained a final concentration of 3 mM NADPH and 1 mM ascorbic acid in 200 mM Tris–HCl (pH 7.4). After preincubation (37 °C, 1 min, mixing at 250–300 rpm), the toxin stock was added in a 1:100 dilution, resulting in a total DMSO content of 1% and the desired toxin concentration. DMSO was selected for this assay because it is the least inhibitory of the solvents studied by Busby et al. on CYP1A1,[35] the primary enzyme involved in the hydroxylation of AOH and AME.[26] The well-established solubility of the test compounds in DMSO and DMSO-containing aqueous buffers facilitated laboratory work and ensured consistency with existing literature, thereby improving the comparability of results across studies, including those of Pfeiffer and colleagues.[25] […]
Pooled high-resolution MS (HR-MS) samples were analyzed on a Vanquish UHPLC system (Thermo Fisher Scientific, Waltham, MA, USA) connected to a dual-pressure linear trap-quadrupole Orbitrap mass analyzer (Velos ETD, Thermo Fisher Scientific, Waltham, MA, USA). […]

Data set [5] is described as follows: Phase I metabolism kinetics (parent toxin loss) in NADPH-fortified rat liver microsomes, LC-MS/MS. In kind it is in vitro ADME, Sprague–Dawley rat. Conditions: for microsomal CLint: male, Sprague-Dawley, rat, liver microsomes, pH 7.4, rat LMs, read-out: CLint (intrinsic clearance); for Concentration decrease: rat LMs. The procedure:
(§2) Pooled human LMs and pooled Sprague–Dawley rat hepatic microsomes, both originating from male donors, were purchased from Sigma-Aldrich (St. Louis, MO, USA) and Gibco, Thermo Fisher Scientific (Waltham, MA, USA), respectively. Porcine LMs were prepared according to an in-house-developed protocol based on the publication of Knights et al.[32] The liver of an approximately four-month-old female “Large White” (or “German Edelschwein”) pig was obtained from a local slaughterhouse. After slaughtering, the liver was placed on ice for about an hour, kept in ice-cold 50 mM tris(hydroxymethyl)aminomethane hydrochloride (Tris–HCl) (pH 7.4) for an additional hour while being transported, and processed immediately.
as §1
(§3) The quantification of selected analytes using external calibration (MS parameters listed in Supporting Information Table S1) was conducted on a high-performance liquid chromatographic system (Dionex UltiMate 3000 UHPLC, Dionex Softron GmbH, Germering, Germany) coupled to a triple quadrupole mass spectrometer (TSQ Vantage, Thermo Fisher Scientific, Waltham, MA, USA), equipped with a heated electrospray ionization (ESI) interface. The applied analytical method is based on Puntscher et al.[28],[36] with slight modifications, which are specified below.
(§4) In brief, the Ascentis Express C18 column (10 cm × 2.1 mm, 2.7 μm, Supelco, Munich, DE), equipped with the Phenomenex SecurityGuard (C18 Cartridges, 4 × 2.0 mm ID, Phenomenex Ltd. Deutschland, Aschaffenburg, Germany), served as the stationary phase. Eluent A was aqueous ammonium acetate (5 mM, pH adjusted to 8.6 with a 25% ammonia solution), and eluent B was methanol. During the first minute, the column was kept at 30% eluent B. Subsequently, the eluent B content was linearly raised to 100% within 6 min. Thereafter, the column was washed with 100% eluent B for 1.5 min. Lastly, the column was re-equilibrated at the initial conditions, reaching an overall run time of 10 min. The autosampler compartment was kept at 10 °C, while the column oven temperature was maintained at 30 °C. […]

Data set [6] in a line: Phase I metabolism kinetics (parent toxin loss) in NADPH-fortified porcine liver microsomes, LC-MS/MS. In kind it is in vitro ADME, pig. Conditions: for microsomal CLint: female, Large White, pig, liver microsomes, pH 7.4, porcine LMs, read-out: CLint (intrinsic clearance); for Concentration decrease: porcine LMs. The procedure:
as §2, §1, §3, §4
Background: Liver microsomes are a subcellular fraction often used to study metabolism.

The conditions of data set [7]: oral administration, rats; cited from earlier work.
The nature of data set [8]: Phase I metabolism kinetics (parent toxin loss) in NADPH-fortified human liver microsomes, LC-MS/MS. In kind it is in vitro ADME. Conditions: for microsomal CLint: human, pH 7.4, human LMs, read-out: CLint (intrinsic clearance). The procedure:
as §2, §1, §3, §4

The conditions of data set [9]: Caco-2 cell monolayers; cited from earlier work.
The mark [10] stands for this setting: 10 min incubation with 10 μM AME.
[11] abbreviates: Michaelis–Menten model, ratio Vmax/Km.
Setting [12] is: linear regression, lower concentration range.

For `COc1cc(O)c2c(=O)oc3cc(O)c(O)c(C)c3c2c1` [2-OH-AME], the “relative abundance among phase I metabolites (in words)” value in data set [1] is reported as “most abundant”; in data set [2] (porcine LMs incubated with AME), “main metabolites”. Moreover, in data set [2] (setting [10]), the “Relative peak area of oxidative metabolite” value (“Relative peak area” below) worked out at 30%.
`COc1cc(O)c2c(=O)oc3c(O)c(O)cc(C)c3c2c1` [4-OH-AME]: the “genotoxic effects compared with parent compound” value in data set [3] is recorded as “less pronounced genotoxic effects”. Also, the “relative abundance among phase I metabolites (in words)” value in [1] is listed as “most abundant”. Further, the “Relative peak area” value in data set [2] (setting [10]) was “less than 20%”.
Consider `Cc1cc(O)c(O)c2oc(=O)c3c(O)cc(O)cc3c12` [4-OH-AOH], for which, in data set [3], the “genotoxic effects compared with parent compound” value was “less pronounced genotoxic effects”. Besides, the “relative abundance among phase I metabolites (in words)” value in data set [2] (porcine LMs incubated with AOH) is recorded as “primary oxidative metabolite”. Further, the “Relative peak area” value in data set [2] (10 min incubation with 10 μM AOH) is recorded as 50%.
For the compound `COc1cc2c(c(O)c1O)c(=O)oc1cc(O)cc(C)c12` [8-OH-AME], the “relative abundance among phase I metabolites (in words)” value in data set [1] is “small amounts”; in [4] it was “main metabolites”.
For the compound `Cc1cc(O)cc2oc(=O)c3c(O)c(O)c(O)cc3c12` [8-OH-AOH], the “relative abundance among phase I metabolites (in words)” value in data set [2] (porcine LMs incubated with AOH) is on record as “small amounts”.
In the case of `COc1cc(O)c2c(=O)oc3cc(O)cc(C)c3c2c1` [AME, alternariol 9-O-monomethyl ether], the microsomal CLint in [5] (setting [11]) came to 45.2 µL/min/mg; in data set [5] (setting [12]), 46.2 µL/min/mg; in data set [6] (setting [11]), 19.5 µL/min/mg; in data set [6] (setting [12]), 19 µL/min/mg; in data set [8] (male, liver microsomes, Michaelis–Menten model, ratio Vmax/Km), 26.3 µL/min/mg; in [8] (male, liver microsomes, linear regression, lower concentration range), 15.8 µL/min/mg. The Concentration decrease in [5] (1 µM toxin, 5 min) amounted to 28%; in data set [5] (1 µM toxin, 10 min), 43%; in data set [5] (10 µM toxin, 5 min) it was 24%; in [5] (10 µM toxin, 10 min), 48%; in data set [5] (20 µM toxin, 5 min), 20%; in [5] (20 µM toxin, 10 min), 48%. Also, the Concentration decrease was 17% in [5] (50 µM toxin, 5 min); 48% in data set [5] (50 µM toxin, 10 min); 16% in data set [6] (1 µM toxin, 5 min); 38% in data set [6] (1 µM toxin, 10 min); 13% in data set [6] (10 µM toxin, 5 min); 24% in data set [6] (10 µM toxin, 10 min). Further, the Concentration decrease in data set [6] (20 µM toxin, 5 min) turned out to be 19%; in data set [6] (20 µM toxin, 10 min) it was 30%; in data set [6] (50 µM toxin, 5 min), 20%; in data set [6] (50 µM toxin, 10 min), 27%; in data set [8] (human LMs, 1 µM toxin, 5 min) it was 35%; in data set [8] (human LMs, 1 µM toxin, 10 min) it was 59%. Moreover, the Concentration decrease in [8] (human LMs, 10 µM toxin, 5 min) came out at 26%; in data set [8] (human LMs, 10 µM toxin, 10 min) it was 19%; in [8] (human LMs, 20 µM toxin, 5 min), 8%; in data set [8] (human LMs, 20 µM toxin, 10 min) it was 26%; in data set [8] (human LMs, 50 µM toxin, 5 min) it was 2%; in [8] (human LMs, 50 µM toxin, 10 min), 47%. Moreover, the absorbed fraction entry in data set [7] is “less than 10%”. Besides, the “Vmax (maximum transformation rate)” value in [8] (human LMs, within 10 min, Michaelis–Menten model) turned out to be 772 pmol/mg/min. Also, the Km – broadly, the concentration of substrate that gives half-maximal velocity – in data set [8] (male, liver microsomes, pH 7.4, human LMs 1 mg protein/mL, NADPH, within 10 min, Michaelis–Menten model, read-out: Km (Michaelis constant)) is 29.4 µM. The intestinal absorption result in [9] was “limited intestinal absorption”.

The values are drawn from PMC11337205, “Unraveling Interspecies Differences in the Phase I Hepatic Metabolism of Alternariol and Alternariol Monomethyl Ether: Closing Data Gaps for a Comprehensive Risk Assessment” (Chemical Research in Toxicology, 2024).
